Reference: paper PMC10714399, “Open Source Antibiotics: Simple Diarylimidazoles Are Potent against Methicillin-Resistant Staphylococcus aureus” (ACS Infectious Diseases, 2023)
Converted amounts (≈) assume the structure as drawn.

test system: Staphylococcus aureus NCTC 13373 (mecA-positive; methicillin-resistant); test: In vitro antibacterial activity, MIC (UCL School of Pharmacy assay), MRSA; format: cell-based; settings: Staphylococcus aureus, 16 h; read-out: MRSA MIC
Procedure, shortened: (§1)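 Broth microdilution MIC in isosensitest broth; inoculum from overnight tryptone soya agar culture suspended in PBS to A600 0.1 (~1 × 10^8 CFU/mL), then diluted 1:100. Compounds tested as 2-fold series from 32 to 0.03 μg/mL, DMSO at most 2%; vancomycin as quality control.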

| MIC | SMILES |
| --- | --- |
| 4 µg/mL (≈ 12.5 µM) | Cc1ccc(-c2c(-c3ccccn3)nc3cc(Cl)ccn23)cc1 [compound 978] |
| 4 µg/mL (≈ 14 µM) | Cc1ccc(-c2c(-c3ccccn3)nc3ccccn23)cc1 [compound 1018] |

same assay, conditions: Staphylococcus aureus, UCL; read-out: MRSA MIC (UCL)

| MIC | SMILES |
| --- | --- |
| > 32 µg/mL | COc1ccn2cc(-c3ccccn3)nc2c1 [OSA_000856] |
| > 32 µg/mL | COc1ccn2c(-c3cccc(Cl)n3)c(-c3ccccn3)nc2c1 [OSA_000857] |
| 4 µg/mL (≈ 12.5 µM) | Cc1ccc(-c2c(-c3ccccn3)nc3cc(Cl)ccn23)cc1 [OSA_000978] |

same assay, conditions: Staphylococcus aureus; read-out: MRSA MIC

| MIC | SMILES |
| --- | --- |
| 4 µg/mL (≈ 12.5 µM) | Cc1ccc(-c2c(-c3ccccn3)nc3cc(Cl)ccn23)cc1 [compound 978] |
| 4 µg/mL (≈ 14 µM) | Cc1ccc(-c2c(-c3ccccn3)nc3ccccn23)cc1 [compound 1018] |

test system: S. aureus ATCC 25923 (methicillin-susceptible); test: In vitro antibacterial activity, MIC (UCL), MSSA; format: cell-based, Staphylococcus aureus; settings: Staphylococcus aureus; read-out: MSSA MIC
Procedure, shortened: as §1

| MIC | SMILES |
| --- | --- |
| 4 µg/mL (≈ 14 µM) | Cc1ccc(-c2c(-c3ccccn3)nc3ccccn23)cc1 [compound 1018] |

test system: Enterococcus faecalis ATCC 51299 (vanA-positive; vancomycin-resistant); test: In vitro antibacterial activity, MIC (UCL), VRE; format: cell-based; settings: read-out: VRE MIC
Procedure, shortened: as §1

| MIC | SMILES |
| --- | --- |
| 8 µg/mL (≈ 25 µM) | Cc1ccc(-c2c(-c3ccccn3)nc3cc(Cl)ccn23)cc1 [compound 978] |

same assay, conditions: read-out: VRE MIC (UCL)

| MIC | SMILES |
| --- | --- |
| > 32 µg/mL | COc1ccn2cc(-c3ccccn3)nc2c1 [OSA_000856] |
| > 32 µg/mL | COc1ccn2c(-c3cccc(Cl)n3)c(-c3ccccn3)nc2c1 [OSA_000857] |
| 8 µg/mL (≈ 25 µM) | Cc1ccc(-c2c(-c3ccccn3)nc3cc(Cl)ccn23)cc1 [OSA_000978] |

test system: not listed separately; test: Aqueous solubility; format: physicochemical; settings: NEU

| Aqueous Solubility (NEU) | SMILES |
| --- | --- |
| 5 µM | Cc1ccc(-c2c(-c3ccccn3)nc3cc(Cl)ccn23)cc1 [OSA_000978] |

same assay, conditions: thermodynamic from solid; NEU; read-out: Aqueous Solubility (NEU)

| solubility | SMILES |
| --- | --- |
| 723 µM (≈ 163 µg/mL) | COc1ccn2cc(-c3ccccn3)nc2c1 [OSA_000856] |
| 37 µM (≈ 12.5 µg/mL) | COc1ccn2c(-c3cccc(Cl)n3)c(-c3ccccn3)nc2c1 [OSA_000857] |

same assay, conditions: thermodynamic from solid; read-out: Aqueous Solubility

| solubility | SMILES |
| --- | --- |
| 5 µM (≈ 1.6 µg/mL) | Cc1ccc(-c2c(-c3ccccn3)nc3cc(Cl)ccn23)cc1 [compound 978] |
| 43 µM (≈ 12.3 µg/mL) | Cc1ccc(-c2c(-c3ccccn3)nc3ccccn23)cc1 [compound 1018] |

test system: not listed separately; test: LogD7.4 (Chrom Log D); format: physicochemical; settings: chromatographic system (Chrom Log D); pH 7.4, NEU; read-out: LogD 7.4 (NEU)
Source text: To guide our initial SAR exploration work, we obtained liver microsomal intrinsic clearance data for 5 of the 18 compounds assayed by CO-ADD (Supporting Information - CDCO Report and Supporting Information - Biology). We then acquired intrinsic clearance (CLint), plasma protein binding (PPB), and solubility data on further compounds throughout the SAR campaign (Supporting Information - Biology, Tables S3 and S4). […] The more polar compounds (lower LogD) had reduced PPB and were more metabolically stable.
Table S4. ADME and Pharmacokinetics: compounds only appearing in the Supplementary […]
MRSA Aqueous HLM CLint Rat Hep CLint
Cmpd MIC Solubility Human PPB (%) (µL/min/mg (µL/min/10x6 LogD7.4
(µg/mL) (µM) protein) cells)
(§2) ADME and toxicity for compounds were measured according to procedures outlined in the manuscript submitted in parallel to this one;2 other procedures were used for those compounds analysed by Monash University (in vitro ADME) or UCL (toxicity), both described in the main

| chromatographic logD | SMILES |
| --- | --- |
| 2.2 | COc1ccn2cc(-c3ccccn3)nc2c1 [OSA_000856] |
| 2.5 | COc1ccn2c(-c3cccc(Cl)n3)c(-c3ccccn3)nc2c1 [OSA_000857] |
| 3.1 | Cc1ccc(-c2c(-c3ccccn3)nc3cc(Cl)ccn23)cc1 [OSA_000978] |

same assay, conditions: pH 7.4; read-out: LogD7.4

| chromatographic logD | SMILES |
| --- | --- |
| 3.1 | Cc1ccc(-c2c(-c3ccccn3)nc3cc(Cl)ccn23)cc1 [compound 978] |
| 3.3 | Cc1ccc(-c2c(-c3ccccn3)nc3ccccn23)cc1 [compound 1018] |

test system: not listed separately; test: Human plasma protein binding (PPB); format: in vitro ADME; settings: human, plasma, human plasma, NEU; read-out: Human PPB (NEU) (converted)

| fraction unbound | SMILES |
| --- | --- |
| 0.21 | COc1ccn2cc(-c3ccccn3)nc2c1 [OSA_000856] |
| 0.035 | COc1ccn2c(-c3cccc(Cl)n3)c(-c3ccccn3)nc2c1 [OSA_000857] |
| 0.0055 | Cc1ccc(-c2c(-c3ccccn3)nc3cc(Cl)ccn23)cc1 [OSA_000978] |

same assay, conditions: human, plasma; read-out: Human PPB (converted)

| fraction unbound | SMILES |
| --- | --- |
| 0.01 | Cc1ccc(-c2c(-c3ccccn3)nc3cc(Cl)ccn23)cc1 [compound 978] |
| 0.01 | Cc1ccc(-c2c(-c3ccccn3)nc3ccccn23)cc1 [compound 1018] |

test system: not listed separately; test: Human liver microsome intrinsic clearance; format: in vitro ADME; settings: human liver microsomes, NEU

| HLM CLint (NEU) | SMILES |
| --- | --- |
| 65.6 uL/min/mg protein | Cc1ccc(-c2c(-c3ccccn3)nc3cc(Cl)ccn23)cc1 [OSA_000978] |

same assay, conditions: human liver microsomes, NEU; read-out: HLM CLint (NEU)

| microsomal CLint | SMILES |
| --- | --- |
| > 300 µL/min/mg | COc1ccn2cc(-c3ccccn3)nc2c1 [OSA_000856] |
| 124 µL/min/mg | COc1ccn2c(-c3cccc(Cl)n3)c(-c3ccccn3)nc2c1 [OSA_000857] |

same assay, conditions: human, liver microsomes; read-out: HLM CLint

| microsomal CLint | SMILES |
| --- | --- |
| 65.6 µL/min/mg | Cc1ccc(-c2c(-c3ccccn3)nc3cc(Cl)ccn23)cc1 [compound 978] |
| 122 µL/min/mg | Cc1ccc(-c2c(-c3ccccn3)nc3ccccn23)cc1 [compound 1018] |

test system: not listed separately; test: Rat hepatocyte intrinsic clearance; format: in vitro ADME; settings: rat hepatocytes, NEU

| Rat Hep CLint (NEU) | SMILES |
| --- | --- |
| 52.9 uL/min/10x6 cells | COc1ccn2cc(-c3ccccn3)nc2c1 [OSA_000856] |
| 104 uL/min/10x6 cells | Cc1ccc(-c2c(-c3ccccn3)nc3cc(Cl)ccn23)cc1 [OSA_000978] |

same assay, conditions: rat hepatocytes, NEU; read-out: Rat Hep CLint (NEU)

| hepatocyte CLint | SMILES |
| --- | --- |
| 12.9 µL/min/1e6 cells | COc1ccn2c(-c3cccc(Cl)n3)c(-c3ccccn3)nc2c1 [OSA_000857] |

same assay, conditions: rat, hepatocytes; Figure 4; read-out: Rat Hep CLint

| hepatocyte CLint | SMILES |
| --- | --- |
| 104 µL/min/1e6 cells | Cc1ccc(-c2c(-c3ccccn3)nc3cc(Cl)ccn23)cc1 [compound 978] |
| 57.7 µL/min/1e6 cells | Cc1ccc(-c2c(-c3ccccn3)nc3ccccn23)cc1 [compound 1018] |

test system: MRC-5SV2 (human lung fibroblast cell line); test: Toxicity against MRC-5SV2; format: cell-based; settings: MRC5 cells
Experimental: as §2

| SMILES | MRC5 TC50 |
| --- | --- |
| COc1ccn2cc(-c3ccccn3)nc2c1 [OSA_000856] | 51.6 µM |
| COc1ccn2c(-c3cccc(Cl)n3)c(-c3ccccn3)nc2c1 [OSA_000857] | 24.2 µM |

test system: PMM (primary mouse macrophages); test: Toxicity against PMM; format: cell-based; settings: PMM
Experimental: as §2

| SMILES | PMM TC50 |
| --- | --- |
| COc1ccn2cc(-c3ccccn3)nc2c1 [OSA_000856] | 64 µM |
| COc1ccn2c(-c3cccc(Cl)n3)c(-c3ccccn3)nc2c1 [OSA_000857] | 64 µM |
